Consider 26 compounds from patent US6593335B1, “Potassium channel openers” (Abbott Laboratories, priority 1997, dated 2003).

Each structure is given as a SMILES string.

The target of one data set is potassium channels (Sus scrofa, UniProt F1SR11). The data set is described as follows: Functional potassium channel opening activity in isolated Landrace pig bladder strips (field-stimulated twitch). The settings on record: for Landrace Pig Bladder Index: ED50 for P1075 divided by ED50 for the test agonist, averaged over tissues; for Landrace Pig Bladder pD2: negative logarithm of ED50; for Emax: pig, maximal efficacy relative to P1075, field stimulation 0.05Hz, 0.5 milli-seconds at 20 volts. In a few lines:
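Landrace pig bladder strips with the mucosa removed were field-stimulated (0.05 Hz, 0.5 ms, 20 V) in Krebs Ringer bicarbonate containing propranolol, and primed with 80 mM KCl. Cumulative concentration-response curves gave maximal efficacy relative to a reference potassium channel opener, pD2, and a potency index (reference ED50/test ED50) averaged across tissues.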

As for `O=C1CCCC2=C1C(c1ccc(F)c(Cl)c1)C1=C(CCS1(=O)=O)N2` (single isomer, unassigned; (+)) [Example 109, (+)-9-(3-chloro-4-fluorophenyl)-2,3,5,6,7,9-hexahydrothieno[3,2-b]quinolin-8(4H)-one, 1,1-dioxide], the melting point is greater than 250 °C. In addition, at potassium channels, the “Landrace Pig Bladder Index” value was determined as 0.36, the “Landrace Pig Bladder pD2” value is reported as 6.6 and the maximum response (Emax) came out at 100%.

For `N#Cc1cccc(C2C3=C(CCC3=O)NC3=C2S(=O)(=O)CC3)c1` (centres unmarked) [Example 52, 8-(3-cyanophenyl)-2,3,4,5,6,8-hexahydro-7H-cyclopenta[b]thieno [2.3-e]pyridin-7-one, 1,1-dioxide], the melting point lay in the range of 156 to 176 °C. For the same compound, at potassium channels, the “Landrace Pig Bladder Index” value is 0.018, the “Landrace Pig Bladder pD2” value is 5.6 and the Emax is 100%.

For `O=C1CCC2=C1C(c1ccc(F)c(Br)c1)C1=C(CCS1(=O)=O)N2` (centres unmarked) [Example 56, 8-(3-bromo-4-fluorophenyl)-2,3,4,5,6,8-hexahydro-7H-cyclopenta[b]thieno[2,3-e]pyridin-7-one, 1,1-dioxide], the melting point was greater than 260 °C. At potassium channels, the “Landrace Pig Bladder Index” value is reported as 0.88, the “Landrace Pig Bladder pD2” value amounted to 7.1 and the Emax was 97%.

`O=C1CCC2=C1C(c1ccc(F)c(C(F)(F)F)c1)C1=C(CCS1(=O)=O)N2` (centres unmarked) [Example 57, 8-(4-fluoro-3-trifluoromethylphenyl)-2,3,4,5,6,8-hexahydro-7H-cyclopenta[b]thieno [2.3-e]pyridin-7-one, 1,1-dioxide] had a melting point of 254 °C. In addition, at potassium channels, the “Landrace Pig Bladder Index” value is reported as 0.42, the “Landrace Pig Bladder pD2” value came out at 6.8 and the Emax came to 100%.

Compound `O=C1CCC2=C1C(c1ccc(Cl)c(Cl)c1)C1=C(CCS1(=O)=O)N2` (centres unmarked) [Example 60, 8-(3 4-dichlorophenyl)-2,3 4,5,6,8-hexahydro-7H-cyclopenta[b]thieno [2,3-e]pyridin-7-one, 1,1-dioxide] registered a melting point greater than 260 °C. Also, at potassium channels, the “Landrace Pig Bladder Index” value was found to be 0.60, the “Landrace Pig Bladder pD2” value came out at 6.9 and the Emax worked out at 100%.

For `O=S1(=O)CCC2=C1C(c1ccc(F)c(C(F)(F)F)c1)C1=C(CCS1(=O)=O)N2` [Example 65], the melting point is greater than 260 °C. Also, on potassium channels, the “Landrace Pig Bladder Index” value was found to be 0.048, the “Landrace Pig Bladder pD2” value was determined as 6.0 and the Emax amounted to 100%.

Consider `CC(=O)C1=C(C)NC2=C(C1c1ccc(F)c(Br)c1)S(=O)(=O)CCC2` (centres unmarked) [Example 66, 1-[8-(3-bromo-4-fluorophenyl)-3,4,5,8-tetrahydro-6-methyl-1.-dioxido-2H-thiopyrano[3,2-b]pyridin-7-yl)lethan-1-one], for which the melting point is greater than 260 °C. Further, on potassium channels, the “Landrace Pig Bladder Index” value is reported as 0.12, the “Landrace Pig Bladder pD2” value is given as 6.3 and the Emax amounted to 94%.

On to `O=C1CCC2=C1C(c1ccc([N+](=O)[O-])s1)C1=C(CCS1(=O)=O)N2` (centres unmarked) [Example 70], for which the melting point was 251 to 254 °C. Also, on potassium channels, the “Landrace Pig Bladder Index” value is 0.15, the “Landrace Pig Bladder pD2” value is given as 6.3 and the maximal effect (Emax) was 100%.

`O=[N+]([O-])c1cccc(C2C3=C(CCS3(=O)=O)NC3=C2S(=O)(=O)CC3)c1` [Example 73] gave a melting point of 248 to 252 °C. At potassium channels, the “Landrace Pig Bladder Index” value is listed as 0.0022, the “Landrace Pig Bladder pD2” value worked out at 4.4 and the Emax amounted to 98%.

Take `O=S1(=O)CCC2=C1C(c1ccc(F)c(Cl)c1)C1=C(CCS1(=O)=O)N2` [Example 74]: the melting point was greater than 260 °C. In addition, at potassium channels, the “Landrace Pig Bladder Index” value amounted to 0.081, the “Landrace Pig Bladder pD2” value is given as 6.1 and the Emax came to 100%.

`O=S1(=O)CCC2=C1C(c1ccc(Cl)c(Cl)c1)C1=C(CCS1(=O)=O)N2` [Example 77]: the melting point is greater than 260 °C. At potassium channels, the “Landrace Pig Bladder Index” value came out at 0.046, the “Landrace Pig Bladder pD2” value worked out at 5.5 and the Emax amounted to 93%.

As to `O=C1CCCC2=C1C(c1ccc(F)c(Cl)c1)C1=C(CCS1(=O)=O)N2` (centres unmarked) [Example 81, 9-(3-chloro-4-fluorophenyl)-2,3,5,6,7,9-hexahydrothieno [3.2-b]quinolin-8(4H)-one, 1 1-dioxide], the melting point was greater than 260 °C. Moreover, at potassium channels, the “Landrace Pig Bladder Index” value was 0.39, the “Landrace Pig Bladder pD2” value stood at 6.4 and the Emax came to 91%.

`CC1=C(C(=O)O)C(c2ccc(F)c(Br)c2)C2=C(CCS2(=O)=O)N1` (centres unmarked) [Example 106, 7-(3-bromo-4-fluorophenyl)-5-methyl-2,3,4,7-tetrahydrothieno[3.2-b]pyridine-6-carboxylic acid, 1,1-dioxide] showed a melting point of 220 to 223 °C. In addition, on potassium channels, the “Landrace Pig Bladder Index” value came out at 0.014, the “Landrace Pig Bladder pD2” value turned out to be 5.1 and the Emax came out at 98%.

On to `CC1=C(C(=O)O)C(c2ccc(F)c(Br)c2)C2=C(CCCS2(=O)=O)N1` (centres unmarked) [Example 107], for which the melting point is 208 to 210 °C. Besides, on potassium channels, the “Landrace Pig Bladder Index” value is on record as 0.015, the “Landrace Pig Bladder pD2” value is given as 5.2 and the Emax was determined as 100%.

`CC1(C)CCC2=C(C1=O)C(c1ccc(F)c(Br)c1)C1=C(CCS1(=O)=O)N2` (centres unmarked) [Example 116, 9-(3-bromo-4-fluorophenyl)-7,7-dimethyl-2,3,5,6,7,9-hexahydrothieno[3.2-b]quinolin-8(4H)-one, 1,1-dioxide]: the melting point was greater than 270 °C. Besides, at potassium channels, the “Landrace Pig Bladder Index” value is given as 0.16, the “Landrace Pig Bladder pD2” value is listed as 6.3 and the maximum response (Emax) is 100%.

In turn, `O=S1(=O)CCC2=C1C(c1ccc(Cl)c(C(F)(F)F)c1)C1=C(CCS1(=O)=O)N2` [Example 122] had a melting point greater than 260 °C. On potassium channels, the “Landrace Pig Bladder Index” value is recorded as 0.012, the “Landrace Pig Bladder pD2” value amounted to 4.8 and the Emax was found to be 94%.

As for `O=S1(=O)CCC2=C1C(c1ccc3nonc3c1)C1=C(CCS1(=O)=O)N2` [Example 123], the melting point is greater than 260 °C. On potassium channels, the “Landrace Pig Bladder Index” value was 0.0047, the “Landrace Pig Bladder pD2” value is on record as 4.5 and the Emax came to 98%.

The compound `O=S1(=O)CCC2=C1C(c1ccc(Br)c(Br)c1)C1=C(CCS1(=O)=O)N2` [Example 124] had a melting point greater than 260 °C. On potassium channels, the “Landrace Pig Bladder Index” value is reported as 0.025, the “Landrace Pig Bladder pD2” value is 5.3 and the Emax was 99%.

Regarding `CC1(C)CCC2=C(C1=O)C(c1ccc(Cl)c(Cl)c1)C1=C(CCS1(=O)=O)N2` (centres unmarked) [Example 127, 9-(3,.4-dichlorophenyl)-7,7-dimethyl-2,3.5,.6,7,9-hexahydrothieno[3,*2-b Iquinolin-8(4H)-one, 1,1-dioxide], the melting point was 262 to 265 °C (dec.).

For `O=C1CCCC2=C1C(c1ccc(Br)s1)C1=C(CCS1(=O)=O)N2` (centres unmarked) [Example 128, 9-(5-bromo-2-thienyl)-2,3,5,6,7,9-hexahydrothieno[3,2-b]quinolin-8(4H)-one, 1,1-dioxide], the melting point is greater than 250 °C.

For the compound `O=C1CCCC2=C1C(c1cc(Br)cs1)C1=C(CCS1(=O)=O)N2` (centres unmarked) [Example 129, 9-(4-bromo-2-thienyl)-2,3,5,6,7,9-hexahydrothieno[3,2-b]quinolin-8(4H)-one, 1,1-dioxide], the melting point was greater than 250 °C.

`O=C1CCCC2=C1C(c1ccc(Br)c(Br)c1)C1=C(CCS1(=O)=O)N2` (centres unmarked) [Example 137, 9-(3 4-dibromophenyl)-2,3,5,6,79-hexahydrothieno[3,2-b]quinolin-8(4H)-one 1 1-dioxide] displayed a melting point greater than 250 °C.

The compound `O=C1CCCC2=C1C(c1ccc(Cl)c(C(F)(F)F)c1)C1=C(CCS1(=O)=O)N2` (centres unmarked) [Example 151, 9-[4-chloro-3-(trifluoromethyl)phenyl]-2,3,5,6,7,9-hexahydrothieno [32-b]quinolin-8(4H)-one, 1,1-dioxide] registered a melting point greater than 250 °C.

For the compound `O=S1(=O)CCC2=C1C(c1ccc(F)c(Cl)c1)C=C(C(F)(F)F)N2` (centres unmarked) [Example 163, 7-(3-chloro-4-fluorophenyl)-5-(trifluoromethyl)-2,3,4,7-tetrahydrothieno[3,2-b]pyridine, 1,1-dioxide], the melting point is 180 to 183 °C.

Turning to `N#Cc1ccc(C2C3=C(CCCC3=O)NC3=C2S(=O)(=O)CC3)s1` (centres unmarked) [Example 175, 9-(5-cyano-2-thienyl)-2,3,5,6,7,9-hexahydrothieno[3,2-b]guinolin-8(4H)-one, 1,1-dioxide], the melting point was greater than 250 °C.

In turn, `CC1(C)CCC(=O)C2=C1NC1=C(C2c2ccc(F)c(Br)c2)S(=O)(=O)CC1` (centres unmarked) [Example 212] displayed a melting point greater than 270 °C.
